Measured values: US20240327412A1, “FACTOR XIIA INHIBITORS” (KALVISTA PHARMACEUTICALS LIMITED, priority 2021, published 2024)

How the values were obtained:
Human Factor XIIa = molecular target: T1, Human Factor XIIa (Homo sapiens, UniProt P00748); experiment: Determination of FXIIa inhibition (fluorogenic substrate H-DPro-Phe-Arg-AFC, IC50 assay); type: biochemical; details: substrate at Km concentration, 25° C.; category scale; read-out: Human FXII IC50 (nm)
T1 construct: Proteolytic cleavage of FXII to heavy and light chains of FXIIa dramatically increases catalytic activity; purchased Enzyme Research Laboratories
T1 sequence (P00748 373-615 limits assumed): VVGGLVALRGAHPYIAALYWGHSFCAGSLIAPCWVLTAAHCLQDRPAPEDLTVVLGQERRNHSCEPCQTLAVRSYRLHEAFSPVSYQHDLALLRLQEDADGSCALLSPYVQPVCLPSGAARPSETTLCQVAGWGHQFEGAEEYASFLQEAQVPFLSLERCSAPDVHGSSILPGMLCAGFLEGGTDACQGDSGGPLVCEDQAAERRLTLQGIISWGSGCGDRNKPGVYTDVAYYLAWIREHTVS
T1 sequence (P00748 20-372 partner limits assumed): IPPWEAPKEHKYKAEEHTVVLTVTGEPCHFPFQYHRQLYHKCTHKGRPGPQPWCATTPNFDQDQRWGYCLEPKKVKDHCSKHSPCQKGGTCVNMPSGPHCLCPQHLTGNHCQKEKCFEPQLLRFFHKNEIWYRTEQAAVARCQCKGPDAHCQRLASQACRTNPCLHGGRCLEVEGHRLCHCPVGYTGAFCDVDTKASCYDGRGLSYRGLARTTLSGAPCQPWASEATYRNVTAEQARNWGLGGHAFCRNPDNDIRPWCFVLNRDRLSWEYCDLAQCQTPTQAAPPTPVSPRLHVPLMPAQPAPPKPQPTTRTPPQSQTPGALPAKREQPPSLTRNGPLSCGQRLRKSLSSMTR
Outline: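 At substrate Km and 25° C., the rate of AFC release from H-DPro-Phe-Arg-AFC by human Factor XIIa was followed for 5 min across compound concentrations. Inhibition was derived as percent of uninhibited rate, giving IC50.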

Plasma Kallikrein = molecular target: T2, Plasma Kallikrein (Homo sapiens, UniProt P03952); experiment: Related protease inhibition: Plasma Kallikrein (fluorogenic substrate at Km); type: biochemical; details: class symbols per Table 18, read-out: IC50 (human PKal)
T2 construct: FXIIa converts plasma prekallikrein (PK) to plasma kallikrein (PKa)
T2 sequence (P03952 391-638 limits assumed): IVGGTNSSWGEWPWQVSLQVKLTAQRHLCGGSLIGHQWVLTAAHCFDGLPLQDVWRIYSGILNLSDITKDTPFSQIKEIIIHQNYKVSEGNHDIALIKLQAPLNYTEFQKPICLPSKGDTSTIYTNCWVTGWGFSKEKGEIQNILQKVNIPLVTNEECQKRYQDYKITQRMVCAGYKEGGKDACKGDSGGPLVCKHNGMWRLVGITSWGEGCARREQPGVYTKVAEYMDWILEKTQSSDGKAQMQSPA
T2 sequence (P03952 20-390 partner limits assumed): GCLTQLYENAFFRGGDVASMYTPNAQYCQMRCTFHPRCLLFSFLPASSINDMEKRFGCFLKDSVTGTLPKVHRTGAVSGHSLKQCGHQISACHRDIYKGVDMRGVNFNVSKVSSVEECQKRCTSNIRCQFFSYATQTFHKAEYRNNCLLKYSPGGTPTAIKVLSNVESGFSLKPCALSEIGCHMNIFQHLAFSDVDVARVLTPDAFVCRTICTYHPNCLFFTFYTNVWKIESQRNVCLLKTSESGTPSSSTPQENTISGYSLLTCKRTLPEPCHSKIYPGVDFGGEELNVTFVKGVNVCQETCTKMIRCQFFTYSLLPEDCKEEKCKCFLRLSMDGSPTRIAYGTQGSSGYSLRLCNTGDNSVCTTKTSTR
Description: In vitro inhibition of related proteases was determined using an IC50 assay based on standard literature methods (see e.g. Shori et al., Biochem. Pharmacol., 1992, 43, 1209; Bouckaert et al., European Journal of Medicinal Chemistry 110 (2016) 181). Human serine protease enzyme Plasma Kallikrein, KLK1, FXa, Plasmin, Thrombin and Trypsin were assayed for enzymatic activity using an appropriate fluorogenic substrate at Km concentration, FXIa at fixed substrate concentration of 100 μM and various concentrations of the test compound. Protease activity was measured by monitoring the accumulation of liberated fluorescence from the substrate over 5 min at 25° C. The linear rate of fluorescence increase per minute was expressed as percentage (%) activity. IC50 values were calculated as the concentration of inhibitor giving 50% inhibition of the uninhibited enzyme activity (100%).

Compound	IC50 (Human Factor XIIa) [µM]	IC50 (Plasma Kallikrein) [µM]
Nc1nccc2c(N3CC4(CC(OCc5ccn6ccnc6c5)C4)C3)cccc12 [Example 8801, 5-(6-(imidazo[1,2-a]pyridin-7-ylmethoxy)-2-azaspiro[3.3]heptan-2-yl)isoquinolin-1-amine]	10 to 40	> 40
Nc1nccc2c(N3CC4(CC(COc5ccc6nccn6c5)C4)C3)cccc12 [Example 8808, 5-(6-((imidazo[1,2-a]pyridin-6-yloxy)methyl)-2-azaspiro[3.3]heptan-2-yl)isoquinolin-1-amine]	10 to 40	> 40
Nc1nccc2c(N3CC4(CCC4OCc4ccn5ccnc5c4)C3)cccc12 (single isomer, unassigned) [Example 9003, (S*)-5-(5-(imidazo[1,2-a]pyridin-7-ylmethoxy)-2-azaspiro[3.3]heptan-2-yl)isoquinolin-1-amine]	10 to 40	> 40
Nc1nccc2c(OCC34CC(C(=O)N5CCn6ccnc6C5)(C3)C4)cccc12 [Example 1015, [3-[(1-aminoisoquinolin-5-yl)oxymethyl]-1-bicyclo[1.1.1]pentanyl]-(6,8-dihydro-5H-imidazo [1,2-a]pyrazin-7-yl)methanone]	10 to 40	> 40
Nc1nccc2c(NCC34CC(COc5ncccn5)(CCO3)C4)cccc12 [Example 10912, N5-((5-((pyrimidin-2-yloxy)methyl)-2-oxabicyclo[3.1.1]heptan-1-yl)methyl)isoquinoline-1,5-diamine]	10 to 40	> 40
Nc1nccc2c(NCC34CC(Cn5ccccc5=O)(CCO3)C4)cccc12 [Example 10915, 1-((1-(((1-aminoisoquinolin-5-yl)amino)methyl)-2-oxabicyclo[3.1.1]heptan-5-yl)methyl)pyridin-2(1H)-one]	10 to 40	> 40
N#Cc1cnc(OCC23CC(CNc4cccc5c(N)nccc45)(CO2)C3)nc1 [Example 2208, 2-((4-(((1-aminoisoquinolin-5-yl)amino)methyl)-2-oxabicyclo[2.1.1]hexan-1-yl)methoxy)pyrimidine-5-carbonitrile]	3 to 10	> 40
Nc1nccc2c(N3CC4(CCC4OCc4ccn5ccnc5c4)C3)cccc12 (centres unmarked) [Example 9001, 5-(5-(imidazo[1,2-a]pyridin-7-ylmethoxy)-2-azaspiro[3.3]heptan-2-yl)isoquinolin-1-amine]	10 to 40	> 40
Nc1nccc2c(NCC34CN(C(=O)OCc5ccccc5)C(C(=O)N5CCn6c(nnc6C(F)(F)F)C5)(C3)C4)cccc12 [Example 13002, benzyl 4-(((1-aminoisoquinolin-5-yl)amino)methyl)-1-(3-(trifluoromethyl)-5,6,7,8-tetrahydro-[1,2,4]triazolo[4,3-a]pyrazine-7-carbonyl)-2-azabicyclo[2.1.1]hexane-2-carboxylate]	10 to 40	> 40

More lines, now with the values ahead:

IC50 (Human Factor XIIa) [µM]	IC50 (Plasma Kallikrein) [µM]	Compound
0.3 to 1	> 4	Nc1nccc2c(NCC34CC(COC5CCn6ccnc6C5)(CCO3)C4)cccc12 (centres unmarked) [Example 10903, N5-((5-(((5,6,7,8-tetrahydroimidazo[1,2-a]pyridin-7-yl)oxy)methyl)-2-oxabicyclo[3.1.1]heptan-1-yl)methyl)isoquinoline-1,5-diamine]
0.3 to 1	> 40	CC(C)N1C[C@@H]2C[C@H]1CN2CC12CC(CNc3cccc4c(N)nccc34)(C1)C2 [Example 1005.1, N5-((3-(((1S,4S)-5-Isopropyl-2,5-diazabicyclo[2.2.1]heptan-2-yl)methyl)bicyclo[1.1.1]pentan-1-yl)methyl)isoquinoline-1,5-diamine]
0.3 to 1	> 40	Nc1nccc2c(NCC34CC(COC5CCc6nccn6C5)(CO3)C4)cccc12 (centres unmarked) [Example 6610, N5-((4-(((5,6,7,8-tetrahydroimidazo[1,2-a]pyridin-6-yl)oxy)methyl)-2-oxabicyclo[2.1.1]hexan-1-yl)methyl)isoquinoline-1,5-diamine]
1 to 3	> 40	Clc1cc2c(NCC34CC(COc5ccn6ccnc6c5)(CO3)C4)ccnc2[nH]1 [Example 6606, 2-chloro-N-((4-((imidazo[1,2-a]pyridin-7-yloxy)methyl)-2-oxabicyclo[2.1.1]hexan-1-yl)methyl)-1H-pyrrolo[2,3-b]pyridin-4-amine]
3 to 10	> 40	Nc1nccc2c(NCC34CC(COc5ccccn5)(CCO3)C4)cccc12 [Example 10914, N5-((5-((pyridin-2-yloxy)methyl)-2-oxabicyclo[3.1.1]heptan-1-yl)methyl)isoquinoline-1,5-diamine]
0.3 to 1	> 40	CC1(C)OC2(COc3cccc4c(N)nccc34)CC1(COc1ccc3nccn3c1)C2 [Example 7704, 5-((4-((imidazo[1,2-a]pyridin-6-yloxy)methyl)-3,3-dimethyl-2-oxabicyclo[2.1.1]hexan-1-yl)methoxy)isoquinolin-1-amine]
0.3 to 1	> 40	Clc1cc2c(NCC34CC(COC5CCn6ccnc6C5)(C3)C4)ccnc2[nH]1 (centres unmarked) [Example 1130, 2-Chloro-N-[[3-(5,6,7,8-tetrahydroimidazo[1,2-a]pyridin-7-yloxymethyl)-1-bicyclo[1.1.1]pentanyl]methyl]-1H-pyrrolo[2,3-b]pyridin-4-amine]
1 to 3	> 40	Nc1nccc2c(NCC34COC(COc5ccc6ncnn6c5)(C3)C4)cccc12 [Example 2210, N5-((1-(([1,2,4]triazolo[1,5-a]pyridin-6-yloxy)methyl)-2-oxabicyclo[2.1.1]hexan-4-yl)methyl)isoquinoline-1,5-diamine]
0.3 to 1	> 40	Nc1nccc2c(NCC34CC(COC5CCn6ccnc6C5)(C3)C4)cccc12 (single isomer, unassigned) [Example 1002.2, (R*)-N5-((3-(((5,6,7,8-tetrahydroimidazo[1,2-a]pyridin-7-yl)oxy)methyl)bicyclo[1.1.1]pentan-1-yl)methyl)isoquinoline-1,5-diamine]
1 to 3	> 40	Clc1cc2c(NCC34CC(COc5ccc6nccn6c5)(CO3)C4)ccnc2[nH]1 [Example 6611, 2-chloro-N-((4-((imidazo[1,2-a]pyridin-6-yloxy)methyl)-2-oxabicyclo[2.1.1]hexan-1-yl)methyl)-1H-pyrrolo[2,3-b]pyridin-4-amine]
0.3 to 1	> 40	Nc1nccc2c(OCC34CC(COc5ccn6ccnc6c5)(C3)C4)cccc12 [Example 1013, 5-[[3-(Imidazo[1,2-a]pyridin-7-yloxymethyl)-1-bicyclo[1.1.1]pentanyl]methoxy]isoquinolin-1-amine]
3 to 10	> 40	Nc1nccc2c(NCC34CC(Cn5ccn6ccc(=O)cc56)(C3)C4)cccc12 [Example 1127, 1-((3-(((1-aminoisoquinolin-5-yl)amino)methyl)bicyclo[1.1.1]pentan-1-yl)methyl)imidazo[1,2-a]pyridin-7(1H)-one]
0.1 to 0.3	> 40	CC1(C)OC2(CNc3cccc4c(N)nccc34)CC1(COc1ccc3nccn3c1)C2 [Example 7703, N5-((4-((imidazo[1,2-a]pyridin-6-yloxy)methyl)-3,3-dimethyl-2-oxabicyclo[2.1.1]hexan-1-yl)methyl)isoquinoline-1,5-diamine]
